What was measured:
Details in all cases: 72 h
HepG2 [1] = assay: relative viability EC50 (midpoint between 100% and the lowest measured viability); higher = less toxic
Vero E6 [2] = assay: as above
U2OS [3] = assay: as above
HepG2 [4] = assay: drug sensitivity score (DSS) for viability; higher = more toxic; extreme values may be limits of the assay
Vero E6 [5] = assay: as above
U2OS [6] = assay: as above
Calu-3 [7] = assay: as above
Caco-2 [8] = assay: as above
HepG2 [9] = assay: cell viability relative to DMSO; higher = less toxic
Vero E6 [10] = assay: as above
U2OS [11] = assay: as above
Calu-3 [12] = assay: as above
Caco-2 [13] = assay: as above
Calu-3 [14] = assay: relative viability EC50 (midpoint between 100% and the lowest measured viability); higher = less toxic

| SMILES | relative viability EC50 (HepG2 [1]) | relative viability EC50 (Vero E6 [2]) | relative viability EC50 (U2OS [3]) | drug sensitivity score (HepG2 [4]) | drug sensitivity score (Vero E6 [5]) | drug sensitivity score (U2OS [6]) | drug sensitivity score (Calu-3 [7]) | drug sensitivity score (Caco-2 [8]) | cell viability (HepG2 [9]; 1 nM) | cell viability (HepG2 [9]; 10 nM) | cell viability (HepG2 [9]; 100 nM) | cell viability (HepG2 [9]; 1000 nM) | cell viability (HepG2 [9]; 10000 nM) | cell viability (Vero E6 [10]; 1 nM) | cell viability (Vero E6 [10]; 10 nM) | cell viability (Vero E6 [10]; 100 nM) | cell viability (Vero E6 [10]; 1000 nM) | cell viability (Vero E6 [10]; 10000 nM) | cell viability (U2OS [11]; 1 nM) | cell viability (U2OS [11]; 10 nM) | cell viability (U2OS [11]; 100 nM) | cell viability (U2OS [11]; 1000 nM) | cell viability (U2OS [11]; 10000 nM) | cell viability (Calu-3 [12]; 1 nM) | cell viability (Calu-3 [12]; 10 nM) | cell viability (Calu-3 [12]; 100 nM) | cell viability (Calu-3 [12]; 1000 nM) | cell viability (Calu-3 [12]; 10000 nM) | cell viability (Caco-2 [13]; 1 nM) | cell viability (Caco-2 [13]; 10 nM) | cell viability (Caco-2 [13]; 100 nM) | cell viability (Caco-2 [13]; 1000 nM) | cell viability (Caco-2 [13]; 10000 nM) | relative viability EC50 (Calu-3 [14]) |
| --- | --- | --- | --- | --- | --- | --- | --- | --- | --- | --- | --- | --- | --- | --- | --- | --- | --- | --- | --- | --- | --- | --- | --- | --- | --- | --- | --- | --- | --- | --- | --- | --- | --- | --- |
| COc1ccc(-c2sc(NC(=O)C(C)(C)C)nc2C)cc1S(=O)(=O)Nc1ccc(O)cc1 [PI4KIII-beta-inhibitor-1] | > 10 µM | > 10 µM | > 10 µM | 0.5 | 0 | 1.1 | 2.8 | 1.8 | 105% | 103% | 101% | 90% | 87.6% | 102% | 96.4% | 92.9% | 96.1% | 88.8% | 94.9% | 99.6% | 96.7% | 93.1% | 79.1% | 115% | 102% | 102% | 91.2% | 66.9% | 95.6% | 97% | 91.1% | 90.7% | 74.2% |  |
| COc1ccc(F)c(F)c1C(=O)c1cnc(NC2CCN(S(C)(=O)=O)CC2)nc1N [R547] |  |  |  | 16.1 | 10.7 | 10.3 | 9 |  |  |  |  |  |  |  |  |  |  |  |  |  |  |  |  |  |  |  |  |  |  |  |  |  |  |  |
| N=C(N)NS(=O)(=O)c1ccc(N)cc1 [sulfaguanidine] |  |  |  | 0 | 0 | 0 | 0 |  |  |  |  |  |  |  |  |  |  |  |  |  |  |  |  |  |  |  |  |  |  |  |  |  |  |  |
| CC(=O)O[C@]1(C(C)=O)CC[C@H]2[C@@H]3C=C(C)C4=CC(=O)CC[C@]4(C)[C@H]3CC[C@@]21C [megestrol-acetate] |  |  |  | 0 | 0 | 0 | 0 |  |  |  |  |  |  |  |  |  |  |  |  |  |  |  |  |  |  |  |  |  |  |  |  |  |  |  |
| OCCNCCCOc1cccc(Cl)c1Cl [2,3-DCPE] | 2.96 µM | 2.99 µM | 3.21 µM | 5.1 | 5 | 4.5 | 0 | 1.5 | 103% | 96.1% | 89.7% | 97.6% | 13.3% | 92.5% | 96.1% | 103% | 97.9% | 15.5% | 105% | 101% | 100% | 101% | 18.1% | 99.1% | 98.6% | 98.1% | 97.5% | 107% | 93.9% | 105% | 106% | 98.7% | 69.4% | > 10000 nM |
| Cc1cccc(OCC(O)CNC(C)(C)C)c1C (configuration not stated) [xibenolol] |  | > 10 µM | > 10 µM |  | 0 | 0 | 0 | 0.7 |  |  |  |  |  | 104% | 99.3% | 100% | 107% | 95.4% | 102% | 97.4% | 99.2% | 94.6% | 110% | 106% | 92.9% | 95.6% | 101% | 103% | 74.6% | 95.8% | 80.1% | 94.3% | 100% | > 10000 nM |
| O=C(CCCc1ccc(-c2ccccc2F)cc1)Nc1ccc(O)cc1 [CMPD-1] | 3.08 µM | > 10 µM | 1.27 µM | 3.2 | 0 | 6.3 | 0.8 | 0.8 | 99% | 97.8% | 107% | 99.2% | 42.6% | 97.2% | 95.3% | 99.6% | 97.6% | 95.5% | 94.9% | 99.4% | 94.2% | 74.8% | 36.6% | 94.2% | 105% | 99% | 88.8% | 86.3% | 95.6% | 92.4% | 97.5% | 112% | 71.9% | > 10000 nM |
| Cc1c(NC(=O)OC[C@@H]2COCCN2)cn2ncnc(Nc3ccc4c(cnn4Cc4cccc(F)c4)c3)c12 | > 10 µM |  | > 10 µM | 0.5 | 3.5 | 1.1 | 8.2 | 3 | 89.8% | 104% | 96% | 99.1% | 82.2% | 98.5% | 103% | 91.7% | 84.1% | 60.7% | 96.6% | 101% | 99.4% | 96.3% | 79.3% | 97.2% | 96.4% | 92.4% | 64.5% | 26.4% | 102% | 101% | 85.1% | 88.2% | 69.3% | 988 nM |
| COc1cc2ncnc(Nc3ccc(F)c(Cl)c3)c2cc1OCCCN1CCOCC1 [gefitinib] |  |  |  | 3.9 | 9.3 | 2.1 | 13.1 | 4.1 |  |  |  |  |  |  |  |  |  |  |  |  |  |  |  |  |  |  |  |  |  |  |  |  |  | 414 nM |
| Cn1ncc(Cl)c1-c1cc(C(=O)N[C@H](CN)Cc2ccc(F)c(F)c2)oc1Cl [uprosertib] |  | > 10 µM | > 10 µM | 3.3 | 0.8 | 1.4 | 5.8 | 6.5 | 101% | 97.4% | 101% | 85.2% | 68.4% | 106% | 102% | 102% | 94.9% | 83.6% | 95.1% | 99.8% | 94.5% | 96.5% | 76.3% | 104% | 107% | 78.4% | 80.5% | 49.9% | 98.7% | 99.3% | 86.2% | 71.5% | 53.9% | 693 nM |

Reference: the supplement of paper PMC13380429
